Reference: EP4745130A1, “CRYSTAL FORMS OF TUBULIN-SRC DUAL-TARGETING INHIBITOR, PREPARATION METHOD THEREFOR AND USE THEREOF” (Hubei Bio-Pharmaceutical Industrial Technological Institute …, priority 2023, dated 2025)

How the values were obtained:
[1] = Pharmacokinetic test in mice; type: in vivo
Method: For the pharmacokinetic test in mice, 3 male ICR mice, 20 to 25 g, were used, fasted overnight, and administered by tail vein injection (1 mg/kg or 5 mg/kg). Blood was collected before the administration, and at 15 min, 30 min, 1 hour, 2 hours, 4 hours, 8 hours, and 24 hours after the administration. Another 3 mice were taken and administered by oral gavage (5 mg/kg), and blood was collected before the administration, and at 15 min, 30 min, 1 hour, 2 hours, 4 hours, 8 hours, and 24 hours after the administration. Blood samples were centrifuged at 6800 g at 2 to 8°C for 6 min, and plasma was collected and stored at -80°C. The plasma at each time point was taken and added with an acetonitrile solution containing internal standard in 3 to 5 times the amount. The mixture was vortexed and mixed for 1 min, and centrifuged at 13,000 rpm at 4°C for 10 min. The supernatant was collected, added with water in 3 times the amount, and mixed. An appropriate amount of the mixture was taken for LC-MS/MS analysis. The main pharmacokinetic parameters were analyzed using WinNonlin 7.0 software with non-compartmental model. Table 43: Results 1 of pharmacokinetic tests in mice

[2] = Human liver microsome stability test; type: in vitro ADME
Method: The human liver microsome stability test was performed by incubating the compound and human liver microsomes in vitro. First, the compound to be tested was prepared into a 10 mM stock solution in DMSO solvent, and then the compound was diluted to 0.5 mM with acetonitrile. Human liver microsomes (Corning) were diluted with PBS into a microsome/buffer solution, and the solution was used to dilute 0.5 mM compound into a working solution, in which the concentration of the compound was 1.5 µM, and the concentration of human liver microsomes was 0.75 mg/mL. A deep-well plate was taken, 30 µL of the working solution was added per well, and then 15 µL of pre-heated 6 mM NADPH solution was added thereto to initiate a reaction, and the reaction was incubated at 37°C. At 0, 5, 15, 30 and 45 min of the incubation, 135 µL of acetonitrile was added to the corresponding wells to terminate the reaction. After the reaction was terminated with acetonitrile at the last time point of 45 min, the deep-well plate was vortexed and shaken for 10 min (600 rpm), and then centrifuged for 15 min. After centrifugation, the supernatant was collected, and added with purified water in a ratio of 1:1 to perform LC-MS/MS detection. A ratio of a peak area of compound to a peak area of internal standard at each time point was obtained, and the peak area ratios of the compound at 5, 15, 30 and 45 min were compared with the peak area ratio at 0 min to calculate the remaining percentage of the compound at each time point. T1/2 was calculated by using GraphPad 5 software. Table 45: Results of human liver microsome stability test

[3] = mouse, plasma, male ICR mice, intravenous injection administration (1 mg/kg)
[4] = mouse, plasma, male ICR mice, oral gavage administration (5 mg/kg)

metabolism in mice in vivo ([1]; in words, compared with the control compound): rapid metabolism
AUC(0-t) [1, 3]: 430 ng·h/mL
clearance [1, 3]: 34.5 mL/min/kg
AUC(0-t) [1, 4]: 443 ng·h/mL
Cmax [1, 4]: 322 ng/mL
half-life at 1 µM ([2]; human liver microsomes, NADPH, 37°C, 0-45 min): 17.2 min
metabolism by human liver microsomes ([2]; in words): metabolized quickly
Compound: Cc1cc(OCCN2C[C@H]3COC[C@H]3C2)ccc1-c1ccc(CC(=O)NCc2ccccc2)nc1 [Compound of Formula I, N-benzyl-2-(5-(2-methyl-4-(2-((3aR,6aS)-tetrahydro-1H-furo[3,4-c]pyrrol-5(3H)-yl)ethoxy)phenyl)pyridin-2-yl)acetamide]
